Reference: patent US20260015333A1, “COMPOUNDS AND METHODS FOR INHIBITION OF THE EVOLUTION OF […]” (priority 2022, published 2026)

Experiments:
Assay type in all cases: cell-based
[1] = tested on: S. typhimurium ST19; experiment: Luria-Delbruck fluctuation assay; conditions: 100 μM ARM-1, plated on 80 ng/ml ciprofloxacin
Procedure: (§1) FIGS. 3A-3C depict how ARM-1 reduces mutation frequency in culture and during infection. FIG. 3A depicts a Luria-Delbruck fluctuation assay with ARM-1 treatment. Single colonies of WT and Δmfd S. typhimurium ST19 were used to inoculate overnight cultures with appropriate antibiotic selection. Cultures were then diluted back to OD600 0.0005 and grown to OD600 0.5 with or without 100 μM ARM-1 treatment. Samples were plated on 80 ng/ml ciprofloxacin and grown overnight, then enumerated the following day. Data shown are the result of a minimum of 50 replicates. FIG. 3B depicts the invasion and infection efficiency in the presence of ARM-1. WT S. typhimurium ST19 in mid-log phase growth was used to infect HeLa cells. Invasion was allowed to proceed for 1 hour before uninternalized bacteria were removed and fresh media applied, containing vehicle control or 31.25 μM ARM-1. At the indicated timepoints, HeLa cells were lysed using 1% Triton-H2O and intracellular bacteria serially diluted and plated on LB for CFU enumeration. FIG. 3C depicts mutation frequency post mammalian cell infection. WT and Δmfd S. typhimurium ST19 were used to infect HeLa cells as described in FIG. 3B. Following infection, intracellular bacteria were harvested and plated on 50 μg/mL 5-fluorocytosine and grown overnight. Mutants were enumerated the following morning. […]

[2] = tested on: S. typhimurium ST19; experiment: Invasion and infection efficiency in HeLa cells; conditions: 31.25 μM ARM-1, compared to untreated WT
Procedure: as §1

[3] = tested on: HeLa cells; experiment: Mammalian cell cytotoxicity (CellTox Green); conditions: during the timeframe of the infection experiment
Procedure: FIGS. 9A-9B depict the cytotoxicity of ARM-1 against indicated mammalian cell lines. FIG. 9A depicts toxicity reported from original Calibr screen data against HEK293T and HepG2 cell lines. FIG. 9B depicts toxicity determined using Promega CellTox reagents following 8 hours of exposure of HeLa, Caco-2, and HEK293 cells to varying concentrations of ARM-1. Relative fluorescent units (RFUs) reported relative to solvent and no substrate controls.
Cytotoxicity of ARM-1 against HeLa, Caco-2, and HEK293 cells was determined using CellTox Green Cytotoxicity Assay (Promega) according to manufacturer instructions. ARM-1 was diluted in DMSO and applied to the culture such that final concentrations of DMSO were less than 0.05%. Reported toxicity is relative to a DMSO only control. Cells were incubated with ARM-1 for 24 hours prior to addition of reporter dye. Fluorescence was read on a BioTek Synergy Neo plate reader.

Cc1cc(Br)ccc1-c1ccc(CNCCCN(C)C)o1 [ARM-1, N^1-((5-(4-bromo-2-methylphenyl)furan-2-yl)methyl)-N^3,N^3-dimethylpropane-1,3-diamine]
reduction in WT mutation frequency [1]: 3 fold
defect in invasion or proliferation in HeLa cells [2]: Neither the Δmfd mutant nor ARM-1 or solvent-treated wild-type or Δmfd strains show a defect in invasion or proliferation
cytotoxic effects on HeLa cells [3]: no cytotoxic effects
